Laboratory results from US10208010B2, “Crystal of a heterocyclidene acetamide derivative” (MOCHIDA PHARMACEUTICAL CO., LTD., priority 2017, dated 2019).

Assays:
human TRPV1 = target: T1, human TRPV1 (Homo sapiens, UniProt Q8NER1); test: Measurement of capsaicin-induced Ca influx in human TRPV1-transformed CHO cell line; type: cell-based; conditions: concentration shifting the capsaicin concentration reaction curve to the right by two times; hTRPV1-CHO cells, FDSS-6000
T1 construct: expressed in transfected cells
From the text: (1) Establishment of Human TRPV1-Transformed CHO Cell Line
Human vanilloid receptor 1 (hTRPV1) cDNA was cloned from a human brain. The cloned hTRPV1 cDNA was inserted into a pCAGGS vector, which was then genetically introduced into a CHO-K1 cell line to transform the cells. Clones obtained by limiting dilution were stimulated with capsaicin, and clones with a high responsiveness were selected based on increased Ca concentration. The selected clones were then used for the following experiment.
(2) Measurement of Ca Influx Using FDSS-6000
Human TRPV1-transformed CHO cells were seeded at a density of 40,000 cells per well on a 96-well plate (black walls, transparent bottom/manufactured by Greiner Bio-One International GmbH). […] Changes in intracellular Ca concentration were measured for 3 minutes after capsaicin stimulus (1 nmol/L to 1 μmol/L) with an FDSS-6000 (λex: 480 nm, λem: 540 nm, Hamamatsu Photonics K.K.). The integral values of the respective intracellular Ca concentration increase rates in the medium group and the group treated with the crystal of the invention were calculated, and capsaicin concentration reaction curves were prepared.

[1] = Long-term storage stability test (powder stability); type: physicochemical
Experimental: (Experimental Example 3) Long-Term Storage Stability Test
(§1) After the end of the storage period, the samples were removed, their chemical purities were measured by high performance liquid chromatography, and the crystal forms were confirmed by x-ray powder analysis.

[2] = Photostability test in accordance with ICH Q1B; type: physicochemical; conditions: for Stability with respect to light: summary in words of Table 10
Experimental: (Experimental Example 4) Photostability Test
After completion of the test, each sample was removed, its chemical purity was measured by high performance liquid chromatography, and the crystal form was confirmed by x-ray powder analysis.

[3] = Storage stability test (powder stability); type: physicochemical
Experimental: (Experimental Example 2) Storage Stability Test
as §1

[4] = Solvent suspension test of crystal form mixture; type: physicochemical; conditions: 25° C.
From the text: (Experimental Example 1) Solvent Suspension Test of Crystal Form Mixture

[5] = 25° C./60% RH, 6 months, sealed
[6] = 25° C./60% RH, 13 months, sealed
[7] = 25° C./60% RH, 24 months, sealed
[8] = 25° C./60% RH, 36 months, sealed
[9] = 25° C./60% RH, 48 months, sealed
[10] = 1ICH (10-day test; 1.2 million lux hours and 200 watt hours/m^2 or more at 25° C.)

T1 sequence (Q8NER1 whole entry): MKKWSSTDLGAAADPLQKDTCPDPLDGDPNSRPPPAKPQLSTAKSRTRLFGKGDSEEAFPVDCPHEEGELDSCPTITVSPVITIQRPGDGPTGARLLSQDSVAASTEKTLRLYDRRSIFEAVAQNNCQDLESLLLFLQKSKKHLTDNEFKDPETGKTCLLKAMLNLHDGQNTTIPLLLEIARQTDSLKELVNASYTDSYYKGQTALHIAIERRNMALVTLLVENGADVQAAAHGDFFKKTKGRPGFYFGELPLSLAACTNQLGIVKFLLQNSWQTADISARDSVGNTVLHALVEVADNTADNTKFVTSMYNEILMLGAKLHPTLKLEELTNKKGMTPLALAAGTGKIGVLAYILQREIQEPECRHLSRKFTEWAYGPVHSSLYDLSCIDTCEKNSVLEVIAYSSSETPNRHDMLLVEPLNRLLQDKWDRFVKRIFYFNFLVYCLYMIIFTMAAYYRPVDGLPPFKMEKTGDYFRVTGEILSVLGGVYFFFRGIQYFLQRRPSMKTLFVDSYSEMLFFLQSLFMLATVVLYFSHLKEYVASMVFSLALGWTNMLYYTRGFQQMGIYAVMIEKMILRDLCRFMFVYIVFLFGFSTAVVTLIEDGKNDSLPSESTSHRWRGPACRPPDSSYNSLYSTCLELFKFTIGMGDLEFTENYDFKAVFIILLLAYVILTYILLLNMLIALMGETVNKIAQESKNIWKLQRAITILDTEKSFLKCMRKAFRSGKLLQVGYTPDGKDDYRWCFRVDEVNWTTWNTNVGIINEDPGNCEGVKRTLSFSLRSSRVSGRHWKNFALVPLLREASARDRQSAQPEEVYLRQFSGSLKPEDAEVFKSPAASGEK

| Chemical purity (%) [2, 10] [%] | Crystal form [2, 10] | Chemical purity (%) ([2]; Before test) | Crystal form ([2]; Before test) | Chemical purity (%) ([3]; 25° C./60% RH, 1 month, sealed) | Crystal form ([3]; 25° C./60% RH, 1 month, sealed) | Chemical purity (%) ([3]; 40° C./75% RH, 1 month, sealed) | Crystal form ([3]; 40° C./75% RH, 1 month, sealed) | Chemical purity (%) ([3]; 60° C., 1 month, sealed) | Crystal form ([3]; 60° C., 1 month, sealed) | Chemical purity (%) ([3]; Before test) | Crystal form ([3]; Before test) | Structure (SMILES) | Stability with respect to light [2] | further results |
| --- | --- | --- | --- | --- | --- | --- | --- | --- | --- | --- | --- | --- | --- | --- |
| – | – | – | – | – | – | – | – | – | – | – | – | O=C(/C=C1\CCOc2cc(C(F)(F)F)ccc21)Nc1cccc2c1C[C@H](O)CC2 [Compound (1), (E)-2-(7-trifluoromethyl-chroman-4-ylidene)-N-((7R)-7-hydroxy-5,6,7,8-tetrahydronaphthalen-1-yl)acetamide] | – | A2 value (human TRPV1): A (A less than 100 nmol/L) |
| >99.9 | Type I crystal | >99.9 | Type I crystal | >99.9 | Type I | >99.9 | Type I | >99.9 | Type I | >99.9 | Type I | O=C(/C=C1\CCOc2cc(C(F)(F)F)ccc21)Nc1cccc2c1C[C@H](O)CC2 [Type I crystal, (E)-2-(7-trifluoromethyl-chroman-4-ylidene)-N-((7R)-7-hydroxy-5,6,7,8-tetrahydronaphthalen-1-yl)acetamide] | extremely high chemical and physical stability | Chemical purity (%) ([1]; 25° C./60% RH, 3 months, sealed): >99.9%; Chemical purity (%) [1, 5]: >99.9%; Crystal form [1, 5]: Type I; Chemical purity (%) [1, 6]: >99.9%; Crystal form [1, 6]: Type I; Chemical purity (%) [1, 7]: >99.9%; Crystal form [1, 7]: Type I; Chemical purity (%) [1, 8]: >99.9%; Crystal form [1, 8]: Type I; Chemical purity (%) [1, 9]: >99.9%; Crystal form [1, 9]: Type I; Chemical purity (%) ([1]; Before test): >99.9%; Crystal form ([1]; Before test): Type I; Moisture absorption ([1]; during the test periods of Experimental Examples 2 and 3): no moisture absorption; Chemical and physical stability ([1]; test periods of Experimental Examples 2 and 3): chemically and physically stable throughout the test period; Thermodynamic stability in suspension [4]: thermodynamically stable in suspension |
| 98.2 | Type II crystal | >99.9 | Type II crystal | >99.9 | Type II | >99.9 | Type II | >99.9 | Type II | >99.9 | Type II | O=C(/C=C1\CCOc2cc(C(F)(F)F)ccc21)Nc1cccc2c1C[C@H](O)CC2 [Type II crystal, (E)-2-(7-trifluoromethyl-chroman-4-ylidene)-N-((7R)-7-hydroxy-5,6,7,8-tetrahydronaphthalen-1-yl)acetamide] | unstable with respect to light | – |
